Measurements from paper PMC9570211, “Analysis of 1-Aroyl-3-[3-chloro-2-methylphenyl] Thiourea Hybrids as Potent Urease Inhibitors: Synthesis, Biochemical Evaluation and Computational Approach” (International Journal of Molecular Sciences, 2022).
Where two headings read alike, the source gives them in different places.

How the values were obtained:
[1] = target: T1, jack bean urease (JBU) (Canavalia ensiformis, UniProt P07374); assay: biochemical
Procedure: Hydrophobic and hydrophilic groups were substituted on a phenyl ring in the novel analogues 4a–j that were synthesized in order to check urease inhibition activity.
The function of nitro, chloro, methyl and ethyl substitution in urease inhibitory activity was evaluated. Thiourea, a well-known urease inhibitor, served as the reference compound.
The methodology used in this research for in vitro urease inhibitory activity is the same as reported in our earlier paper.

[2] = DPPH free radical scavenging assay; conditions: in comparison of standard Vitamin C; up to 100 µg/mL
Procedure: All of the produced 1-aroyl-3-[3-chloro-2-methylphenyl]thiourea compounds were assessed for the ability of DPPH free radical scavenging activity as depicted in Figure 2.
The assay performed in our studies had the same methodology as reported in our previous research articles.

[3] = target: T1, jack bean urease (JBU); assay: Kinetic analysis of urease inhibition (Lineweaver–Burk); format: biochemical
From the text: Kinetic investigations provided additional evidence for the inhibitory function, in which the potential of the potent derivative 4i to inhibit the substrate at different concentrations in such a way that enzyme concentration remained constant. The kinetic tests of the enzyme gave a series of straight lines by the Lineweaver–Burk plot of 1/V versus 1/[S] in the presence of varying compound concentrations (Figure 3A).
Kinetics performed here as stated previously in our research articles was used for urease activity determination.
Figure 3 Compound 4i inhibiting urease in a Lineweaver–Burk plot (A) Concentrations of 4i were 0.00, 0.001, 0.002 and 0.004 µM (Blue, green, red and black colored lines). […] The lines were constructed using least squares linear regression mean ± SEM.

T1 sequence (P07374 whole entry, looked up): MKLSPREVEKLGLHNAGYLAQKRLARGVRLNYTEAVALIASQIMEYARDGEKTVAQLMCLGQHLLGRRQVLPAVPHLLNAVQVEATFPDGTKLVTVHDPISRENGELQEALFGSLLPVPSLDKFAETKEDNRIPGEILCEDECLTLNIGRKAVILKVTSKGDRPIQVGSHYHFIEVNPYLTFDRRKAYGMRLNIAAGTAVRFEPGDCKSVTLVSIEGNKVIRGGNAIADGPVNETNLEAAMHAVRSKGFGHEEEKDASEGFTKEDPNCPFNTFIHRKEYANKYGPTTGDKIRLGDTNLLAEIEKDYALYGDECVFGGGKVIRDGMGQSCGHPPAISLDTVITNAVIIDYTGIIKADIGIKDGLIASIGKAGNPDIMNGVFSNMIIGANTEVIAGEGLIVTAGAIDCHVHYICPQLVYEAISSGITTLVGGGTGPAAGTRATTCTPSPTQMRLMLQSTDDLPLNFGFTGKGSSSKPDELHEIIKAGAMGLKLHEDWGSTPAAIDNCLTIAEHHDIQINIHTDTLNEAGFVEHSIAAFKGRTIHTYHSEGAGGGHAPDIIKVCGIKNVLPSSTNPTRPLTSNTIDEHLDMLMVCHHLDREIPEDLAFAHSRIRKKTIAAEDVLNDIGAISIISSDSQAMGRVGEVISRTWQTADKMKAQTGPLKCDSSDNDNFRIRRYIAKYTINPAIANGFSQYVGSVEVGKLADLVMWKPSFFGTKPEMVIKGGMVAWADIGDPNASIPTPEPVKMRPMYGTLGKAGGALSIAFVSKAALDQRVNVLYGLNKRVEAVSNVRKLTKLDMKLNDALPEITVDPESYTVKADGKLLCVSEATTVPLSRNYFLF

Row | SMILES | IC50 [1] [nM] | DPPH free radical scavenging activity [2] | other results
1 | Cc1c(Cl)cccc1NC(=S)NC(=O)c1ccccc1 [Compound 4a, N-[[3-chloro-2-methylphenyl]carbamothioyl]benzamide] | 44.9 ± 85.4 |  | 
2 | COc1ccc(C(=O)NC(=S)Nc2cccc(Cl)c2C)cc1 [Compound 4b] | 7.9 ± 4.8 |  | 
3 | Cc1ccc(C(=O)NC(=S)Nc2cccc(Cl)c2C)cc1 [Compound 4d] | 53.2 ± 99.5 | good activity | 
4 | Cc1c(Cl)cccc1NC(=S)NC(=O)c1ccc([N+](=O)[O-])cc1 [Compound 4e] |  | good activity | 
5 | Cc1c(Cl)cccc1NC(=S)NC(=O)c1cccc([N+](=O)[O-])c1 [Compound 4f] | 13.6 | good activity | 
6 | Cc1c(Cl)cccc1NC(=S)NC(=O)c1cc([N+](=O)[O-])cc([N+](=O)[O-])c1 [Compound 4g] | 33.5 ± 99.4 | good activity | 
7 | Cc1c(Cl)cccc1NC(=S)NC(=O)c1ccc(Cl)cc1 [Compound 4h] | 22.9 | good activity | 
8 | Cc1c(Cl)cccc1NC(=S)NC(=O)c1ccccc1Cl [Compound 4i] | 1.9 ± 1.1 | good activity | Ki [3]: 0.3 nM; Inhibition Type ([3]; Lineweaver–Burk plot): Non-Competitive; Vmax ([3]; concentration of 4i 0.001 (µM per Figure 3)): 0.000387 ΔA/Min; Vmax ([3]; concentration of 4i 0.002 (µM per Figure 3)): 0.000131 ΔA/Min; Vmax ([3]; concentration of 4i 0.004 (µM per Figure 3)): 8.495 × 10^−5 ΔA/Min
9 | NC(N)=S [Thiourea] |  |  | IC50 ([1]; jack bean urease, mean ± SEM, read-out: Urease Activity IC50 ± SEM): 4750 ± 54.5 nM
